Patent US8822467B2 (Ligand Pharmaceuticals Inc., priority 2009, dated 2014)

What follows are molecules tested against T1, human CRTH2 (Homo sapiens, UniProt Q9Y5Y4) (assay: [35S]GTPγS binding assay (SPA) on membranes from CHO-K1 cells stably expressing human CRTH2, stimulated with 60 nM DHK-PGD2). Conditions: membranes of CHO-K1 cells expressing human CRTH2; 60 nM DHK-PGD2; Table 1; read-out: CRTH2 hGTPγS IC50.
T1 construct: expressed in transfected cells
T1 sequence (Q9Y5Y4 1-395): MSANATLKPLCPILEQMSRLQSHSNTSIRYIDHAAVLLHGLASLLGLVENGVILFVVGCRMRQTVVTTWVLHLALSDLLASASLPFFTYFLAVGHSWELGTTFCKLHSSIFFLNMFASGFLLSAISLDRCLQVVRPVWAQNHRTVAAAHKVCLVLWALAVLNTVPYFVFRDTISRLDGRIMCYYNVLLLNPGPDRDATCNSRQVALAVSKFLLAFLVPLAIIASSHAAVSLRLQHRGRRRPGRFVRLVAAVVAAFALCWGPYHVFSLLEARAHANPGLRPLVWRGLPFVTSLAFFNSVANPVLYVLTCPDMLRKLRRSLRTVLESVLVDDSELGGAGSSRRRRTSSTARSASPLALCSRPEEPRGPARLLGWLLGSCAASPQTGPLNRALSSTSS
Format: biochemical
Method: [^35S]GTPγS Binding Assay
SPA [^35S]G-TPγS binding was performed on membranes from CHO-K1 cells stably expressing human CRTH2. To a white, clear-bottomed 384-well plate, 4 μg membrane protein was incubated in the binding buffer (20 mM HEPES, pH 7.4, 10 mM MgCl2, 300 mM NaCl, 0.2% BSA) with 60 nM DHK-PGD2, 500 pM [^35S]GTPγS, 10 μM GDP, and 100 μg wheat germ agglutinin-coupled SPA beads (GE Healthcare) with and without increasing concentrations of compounds. The final assay volume was 40 μL and contained 1% DMSO. Samples were incubated for 2 h at ambient temperature. Plates were centrifuged 5 min at 1500 rpm. Plates were read after an additional 4 h using the Trilux 1450 Microbeta (PerkinElmer) with a 30 sec/well reading time.
An IC50 of 43 nM was found for `CN(Cc1ccc(OCC(=O)O)c(-c2cccc(C#N)c2)c1)S(=O)(=O)c1cc(F)cc(F)c1` [Example 97, 2-(3-cyanophenyl)-4-((3,5-difluoro-N-methylphenylsulfonamido)methyl)phenoxyacetic acid] in this work.
An IC50 of 169 nM was found for `O=C(O)COc1ccc(CNS(=O)(=O)c2ccc(F)cc2)cc1-c1cccc(C(F)(F)F)c1` [Example 110] in this work.

Same assay, conditions: potency class symbols; Table 2; read-out: CRTH2 hGTPγS IC50
`CN(Cc1ccc(OCC(=O)O)c(-c2cccc(C(F)(F)F)c2)c1)S(=O)(=O)c1ccc(F)c(F)c1` [Example 91, 2-(3-trifluoromethylphenyl)-4-((3,4-difluoro-N-methylphenylsulfonamido)methyl)phenoxyacetic acid] was tested, and the IC50 was < 100 nM.
For `Cc1ccc(S(=O)(=O)N(C)Cc2ccc(OCC(=O)O)c(-c3cccc(C#N)c3)c2)cc1F` [Example 92, 2-(3-cyanophenyl)-4-((3-fluoro-4-methyl-N-methylphenylsulfonamido)methyl)phenoxyacetic acid], the IC50 was < 100 nM.
With `CC(c1ccc(OCC(=O)O)c(-c2cccc(C(F)(F)F)c2)c1)N(C)S(=O)(=O)c1ccc(F)c(F)c1` (centres unmarked) [Example 93, 2-(3-trifluoromethylphenyl)-4-(1-(3,4-difluoro-N-methylphenylsulfonamido)ethyl)phenoxyacetic acid] the IC50 was < 100 nM.
For `CN(Cc1ccc(OCC(=O)O)c(-c2cccc(S(C)(=O)=O)c2)c1)S(=O)(=O)c1ccccc1F` [Example 94, 2-(3-methylsulfonylphenyl)-4-((2-fluoro-N-methylphenylsulfonamido)methyl)phenoxyacetic acid], the IC50 was < 100 nM.
With `CN(Cc1ccc(OCC(=O)O)c(-c2cccc(C(F)(F)F)c2)c1)S(=O)(=O)c1ccc(F)cc1` [Example 95, 2-(3-trifluoromethylphenyl)-4-((4-fluoro-N-methylphenylsulfonamido)methyl)phenoxyacetic acid] the IC50 was < 100 nM.
For `COc1cc(F)cc(-c2cc(CN(C)S(=O)(=O)c3ccc(F)cc3)ccc2OCC(=O)O)c1` [Example 96, 2-(3-methoxy-5-fluorophenyl)-4-((4-fluoro-N-methylphenylsulfonamido)methyl)phenoxyacetic acid], the IC50 was < 100 nM.
`CN(Cc1ccc(OCC(=O)O)c(-c2cccc(C#N)c2)c1)S(=O)(=O)c1cc(F)cc(F)c1` [Example 97, 2-(3-cyanophenyl)-4-((3,5-difluoro-N-methylphenylsulfonamido)methyl)phenoxyacetic acid] was tested, and the IC50 was < 100 nM.
With `CN(Cc1cc(-c2cccc(C#N)c2)c(OCC(=O)O)cc1F)S(=O)(=O)c1ccccc1` [Example 98, 2-(3-cyanophenyl)-4-((N-methylphenylsulfonamido)methyl)-5-fluorophenoxyacetic acid] the IC50 was < 100 nM.
`CN(Cc1ccc(OCC(=O)O)c(-c2cccc(C#N)c2)c1)S(=O)(=O)c1cc(F)cc(Cl)c1` [Example 99, 2-(3-cyanophenyl)-4-((3-chloro-5-fluoro-N-methylphenylsulfonamido)methyl)phenoxyacetic acid] was tested, and the IC50 was < 100 nM.
For `CC(C)Oc1cc(F)cc(-c2cc(CN(C)S(=O)(=O)c3ccc(F)cc3)ccc2OCC(=O)O)c1` [Example 100, 2-(3-isopropoxy-5-fluorophenyl)-4-((4-fluoro-N-methylphenylsulfonamido)methyl)phenoxyacetic acid], the IC50 was < 100 nM.
In the case of `CN(Cc1ccc(OCC(=O)O)c(-c2ccc3ccn(C)c3c2)c1)S(=O)(=O)c1ccc(F)cc1` [Example 101, 2-(1-methyl-indol-6-yl)-4-((4-fluoro-N-methylphenylsulfonamido)methyl)phenoxyacetic acid], the IC50 is reported as < 100 nM.
An IC50 of 100 to 1000 nM was found for `CN(Cc1ccc(OCC(=O)O)c(-c2cccc(C#N)c2)c1)S(=O)(=O)c1cccc(C(F)(F)F)c1` [Example 102, 2-(3-cyanophenyl)-4-((3-trifluoromethyl-N-methylphenylsulfonamido)methyl)phenoxyacetic acid] in this work.
An IC50 of 100 to 1000 nM was found for `COc1cc(S(=O)(=O)N(C)Cc2ccc(OCC(=O)O)c(-c3cccc(C#N)c3)c2)ccc1F` [Example 103, 2-(3-cyanophenyl)-4-((3-methoxy-4-fluoro-N-methylphenylsulfonamido)methyl)phenoxyacetic acid] in this work.
An IC50 of 100 to 1000 nM was found for `COc1ccc(S(=O)(=O)N(C)Cc2ccc(OCC(=O)O)c(-c3cccc(C#N)c3)c2)cc1` [Example 104, 2-(3-cyanophenyl)-4-((4-methoxy-N-methylphenylsulfonamido)methyl)phenoxyacetic acid] in this work.
An IC50 of 100 to 1000 nM was found for `CN(Cc1ccc(OCC(=O)O)c(-c2cccc(C(N)=O)c2)c1)S(=O)(=O)c1ccc(F)cc1` [Example 105, 2-(3-aminocarbonylphenyl)-4-((4-fluoro-N-methylphenylsulfonamido)methyl)phenoxyacetic acid] in this work.
An IC50 of 100 to 1000 nM was found for `CN(Cc1ccc(OCC(=O)O)c(-c2cc(F)cc(F)c2)c1)S(=O)(=O)c1ccc(F)cc1` [Example 106, 2-(3,5-difluorophenyl)-4-((4-fluoro-N-methylphenylsulfonamido)methyl)phenoxyacetic acid] in this work.
An IC50 of 100 to 1000 nM was found for `CN(Cc1ccc(OCC(=O)O)c(-c2cccc(C(F)(F)F)c2)c1)S(=O)(=O)c1ccc(F)cc1F` [Example 107, 2-(3-trifluoromethylphenyl)-4-((2,4-difluoro-N-methylphenylsulfonamido)methyl)phenoxyacetic acid] in this work.
An IC50 of 100 to 1000 nM was found for `CN(Cc1ccc(OCC(=O)O)c(-c2cncc(C#N)c2)c1)S(=O)(=O)c1ccc(F)cc1` [Example 108, 2-(3-cyano-5-pyridinyl)-4-((4-fluoro-N-methylphenylsulfonamido)methyl)phenoxyacetic acid] in this work.
An IC50 of 100 to 1000 nM was found for `Cc1ccc(S(=O)(=O)N(C)Cc2ccc(OCC(=O)O)c(-c3cccc(C#N)c3)c2)cc1` [Example 109, 2-(3-cyanophenyl)-4-((4-methyl-N-methylphenylsulfonamido)methyl)phenoxyacetic acid] in this work.
An IC50 of 100 to 1000 nM was found for `O=C(O)COc1ccc(CNS(=O)(=O)c2ccc(F)cc2)cc1-c1cccc(C(F)(F)F)c1` [Example 110] in this work.
An IC50 of 100 to 1000 nM was found for `CN(Cc1ccc(OCC(=O)O)c(-c2cccc(C(F)(F)F)c2)c1)S(=O)(=O)c1cccc(Cl)c1` [Example 111, 2-(3-trifluoromethylphenyl)-4-((3-chloro-N-methylphenylsulfonamido)methyl)phenoxyacetic acid] in this work.
An IC50 of 100 to 1000 nM was found for `CCOc1cc(F)cc(-c2cc(CN(C)S(=O)(=O)c3ccc(F)cc3)ccc2OCC(=O)O)c1` [Example 112, 2-(3-ethoxy-5-fluorophenyl)-4-((4-fluoro-N-methylphenylsulfonamido)methyl)phenoxyacetic acid] in this work.
An IC50 of 100 to 1000 nM was found for `CCN(Cc1ccc(OCC(=O)O)c(-c2cccc(C(F)(F)F)c2)c1)S(=O)(=O)c1ccc(F)c(F)c1` [Example 113, 2-(3-trifluoromethylphenyl)-4-((3,4-difluoro-N-ethylphenylsulfonamido)methyl)phenoxyacetic acid] in this work.
An IC50 of 100 to 1000 nM was found for `COCc1cccc(-c2cc(CN(C)S(=O)(=O)c3ccc(F)cc3)ccc2OCC(=O)O)c1` [Example 114, 2-(3-methoxymethylphenyl)-4-((4-fluoro-N-methylphenylsulfonamido)methyl)phenoxyacetic acid] in this work.
An IC50 of 100 to 1000 nM was found for `CN(Cc1ccc(OCC(=O)O)c(-c2cc(C(F)(F)F)ccc2Cl)c1)S(=O)(=O)c1ccc(F)cc1` [Example 115, 2-(2-chloro-5-trifluoromethylphenyl)-4-((4-fluoro-N-methylphenylsulfonamido)methyl)phenoxyacetic acid] in this work.
An IC50 of 100 to 1000 nM was found for `CN(Cc1ccc(OCC(=O)O)c(-c2cccc(C(F)(F)F)c2)c1)S(=O)(=O)c1ccc(Cl)cc1` [Example 116, 2-(3-trifluoromethylphenyl)-4-((4-chloro-N-methylphenylsulfonamido)methyl)phenoxyacetic acid] in this work.
An IC50 of 100 to 1000 nM was found for `CC(C)c1cccc(-c2cc(CN(C)S(=O)(=O)c3ccc(F)cc3)ccc2OCC(=O)O)c1` [Example 117, 2-(3-isopropylphenyl)-4-((4-fluoro-N-methylphenylsulfonamido)methyl)phenoxyacetic acid] in this work.
